This note sets out measurements from ChEMBL document CHEMBL1641373, “Trishomocubane as a scaffold for the development of selective dopamine transporter (DAT) ligands” (Bioorg Med Chem Lett, 2011).

Assay [1] has as its target T1, Alpha-1B adrenergic receptor (Homo sapiens) (UniProt P35368).
T1 sequence (whole entry): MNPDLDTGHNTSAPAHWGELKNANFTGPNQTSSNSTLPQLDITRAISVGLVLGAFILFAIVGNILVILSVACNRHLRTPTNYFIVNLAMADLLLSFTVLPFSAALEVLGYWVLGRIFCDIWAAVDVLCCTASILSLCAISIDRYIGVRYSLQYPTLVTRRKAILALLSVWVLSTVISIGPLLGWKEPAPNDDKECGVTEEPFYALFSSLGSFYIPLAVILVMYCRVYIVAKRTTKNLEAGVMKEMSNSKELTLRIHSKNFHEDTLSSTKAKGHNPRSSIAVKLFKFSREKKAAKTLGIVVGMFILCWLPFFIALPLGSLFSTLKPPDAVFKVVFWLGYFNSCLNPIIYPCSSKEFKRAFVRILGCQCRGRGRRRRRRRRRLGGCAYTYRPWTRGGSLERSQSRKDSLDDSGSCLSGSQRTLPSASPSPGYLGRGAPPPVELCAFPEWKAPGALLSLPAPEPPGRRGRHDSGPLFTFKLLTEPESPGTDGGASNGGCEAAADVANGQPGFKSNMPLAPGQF
Put plainly: Inhibition of Alpha-1B adrenergic receptor at 10 uM.

Assay [2] addresses T2, Alpha-1D adrenergic receptor (Homo sapiens) (UniProt P25100).
T2 sequence (whole entry): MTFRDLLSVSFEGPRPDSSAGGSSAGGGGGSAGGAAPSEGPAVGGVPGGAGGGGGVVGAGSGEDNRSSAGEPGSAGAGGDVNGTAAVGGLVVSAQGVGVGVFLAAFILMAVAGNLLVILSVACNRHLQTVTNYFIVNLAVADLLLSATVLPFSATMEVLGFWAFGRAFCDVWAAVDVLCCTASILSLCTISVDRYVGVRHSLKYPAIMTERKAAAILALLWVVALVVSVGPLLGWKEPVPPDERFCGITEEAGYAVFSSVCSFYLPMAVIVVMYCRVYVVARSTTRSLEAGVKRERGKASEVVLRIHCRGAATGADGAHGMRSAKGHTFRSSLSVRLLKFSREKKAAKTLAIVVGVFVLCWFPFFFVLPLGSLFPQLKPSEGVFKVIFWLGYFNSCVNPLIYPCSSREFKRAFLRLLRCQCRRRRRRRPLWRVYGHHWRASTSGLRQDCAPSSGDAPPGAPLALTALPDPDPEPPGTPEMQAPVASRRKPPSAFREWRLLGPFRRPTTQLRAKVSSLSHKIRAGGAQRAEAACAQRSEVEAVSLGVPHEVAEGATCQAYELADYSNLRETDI
In words: Inhibition of Alpha-1D adrenergic receptor at 10 uM.

In assay [3] the target is T3, 5-hydroxytryptamine receptor 2A (Homo sapiens, UniProt P28223). Put plainly: Inhibition of 5HT2A receptor at 10 uM.
T3 sequence (P28223 whole entry): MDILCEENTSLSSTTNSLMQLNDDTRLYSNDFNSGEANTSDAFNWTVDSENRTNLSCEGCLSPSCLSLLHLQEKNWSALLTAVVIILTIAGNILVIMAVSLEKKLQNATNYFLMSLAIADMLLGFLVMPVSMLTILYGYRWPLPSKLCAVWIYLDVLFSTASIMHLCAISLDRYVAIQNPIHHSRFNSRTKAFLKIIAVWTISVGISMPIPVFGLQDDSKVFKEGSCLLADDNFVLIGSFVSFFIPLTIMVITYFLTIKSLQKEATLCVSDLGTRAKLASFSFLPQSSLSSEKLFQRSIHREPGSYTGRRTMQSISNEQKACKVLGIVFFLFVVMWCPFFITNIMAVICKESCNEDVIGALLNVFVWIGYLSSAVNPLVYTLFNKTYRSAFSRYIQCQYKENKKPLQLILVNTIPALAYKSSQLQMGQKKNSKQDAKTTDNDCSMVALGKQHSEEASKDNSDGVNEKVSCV
Assay [4] addresses Alpha-2B adrenergic receptor (Homo sapiens) (UniProt P18089). In words: Inhibition of alpha2B adrenergic receptor at 10 uM.
A short description of assay [5]: Displacement of [3H]-ditolyl guanidine from sigma 2 receptor in rat PC12 cells. It counts as cell-based. The note with it: pc-12.
Assay [6] deals with Alpha-2C adrenergic receptor (Homo sapiens) (UniProt P18825). Put plainly: Inhibition of Alpha-2C adrenergic receptor at 10 uM.
Sequence of Alpha-2C adrenergic receptor (Homo sapiens) (P18825 whole entry): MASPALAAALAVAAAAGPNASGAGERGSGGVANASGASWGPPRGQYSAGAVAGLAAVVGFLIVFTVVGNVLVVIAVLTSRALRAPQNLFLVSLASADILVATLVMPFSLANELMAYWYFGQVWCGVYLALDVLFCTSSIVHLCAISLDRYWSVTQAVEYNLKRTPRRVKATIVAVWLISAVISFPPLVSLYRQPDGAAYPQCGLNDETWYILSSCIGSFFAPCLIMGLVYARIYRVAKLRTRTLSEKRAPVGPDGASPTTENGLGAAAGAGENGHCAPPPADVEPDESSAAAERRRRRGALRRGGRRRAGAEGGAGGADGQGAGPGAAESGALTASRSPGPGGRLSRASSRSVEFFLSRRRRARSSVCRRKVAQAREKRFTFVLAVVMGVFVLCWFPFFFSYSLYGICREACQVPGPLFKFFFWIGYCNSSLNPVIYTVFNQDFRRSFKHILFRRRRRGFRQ
The target in assay [7] is Histamine H3 receptor (Homo sapiens) (UniProt Q9Y5N1). In words: Inhibition of H3 receptor at 10 uM.
Sequence of Histamine H3 receptor (Homo sapiens) (Q9Y5N1 whole entry): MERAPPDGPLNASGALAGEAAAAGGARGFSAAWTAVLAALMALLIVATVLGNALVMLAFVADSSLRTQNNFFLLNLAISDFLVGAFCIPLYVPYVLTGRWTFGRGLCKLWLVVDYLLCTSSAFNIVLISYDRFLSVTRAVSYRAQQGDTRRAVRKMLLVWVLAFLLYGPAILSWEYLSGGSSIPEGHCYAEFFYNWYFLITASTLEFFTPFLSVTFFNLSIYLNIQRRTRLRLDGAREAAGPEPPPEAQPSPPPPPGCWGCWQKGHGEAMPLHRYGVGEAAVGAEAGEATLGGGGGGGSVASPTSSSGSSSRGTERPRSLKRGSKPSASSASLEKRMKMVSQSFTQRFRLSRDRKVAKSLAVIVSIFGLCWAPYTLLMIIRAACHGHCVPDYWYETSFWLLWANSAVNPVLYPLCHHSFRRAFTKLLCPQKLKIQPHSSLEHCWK
The nature of assay [8]: Inhibition of GABAA receptor at 10 uM.
The target in assay [9] is T4, 5-hydroxytryptamine receptor 2B (Homo sapiens, UniProt P41595). Put plainly: Inhibition of 5HT2B receptor at 10 uM.
T4 sequence (P41595 whole entry): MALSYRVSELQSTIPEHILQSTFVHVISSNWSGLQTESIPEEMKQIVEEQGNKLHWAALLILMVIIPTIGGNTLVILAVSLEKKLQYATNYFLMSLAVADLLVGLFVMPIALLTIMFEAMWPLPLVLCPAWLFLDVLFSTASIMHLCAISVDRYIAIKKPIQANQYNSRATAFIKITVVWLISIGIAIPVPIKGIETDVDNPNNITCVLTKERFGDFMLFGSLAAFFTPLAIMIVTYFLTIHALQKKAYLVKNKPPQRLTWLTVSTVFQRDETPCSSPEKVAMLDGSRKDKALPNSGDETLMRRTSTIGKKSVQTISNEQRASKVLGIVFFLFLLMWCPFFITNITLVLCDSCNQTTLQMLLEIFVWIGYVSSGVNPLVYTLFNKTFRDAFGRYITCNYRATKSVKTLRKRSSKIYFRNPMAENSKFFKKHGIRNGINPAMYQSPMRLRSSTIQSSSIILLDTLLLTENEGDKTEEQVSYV
The target in assay [10] is T5, 5-hydroxytryptamine receptor 1A (Homo sapiens) (UniProt P08908).
T5 sequence (whole entry): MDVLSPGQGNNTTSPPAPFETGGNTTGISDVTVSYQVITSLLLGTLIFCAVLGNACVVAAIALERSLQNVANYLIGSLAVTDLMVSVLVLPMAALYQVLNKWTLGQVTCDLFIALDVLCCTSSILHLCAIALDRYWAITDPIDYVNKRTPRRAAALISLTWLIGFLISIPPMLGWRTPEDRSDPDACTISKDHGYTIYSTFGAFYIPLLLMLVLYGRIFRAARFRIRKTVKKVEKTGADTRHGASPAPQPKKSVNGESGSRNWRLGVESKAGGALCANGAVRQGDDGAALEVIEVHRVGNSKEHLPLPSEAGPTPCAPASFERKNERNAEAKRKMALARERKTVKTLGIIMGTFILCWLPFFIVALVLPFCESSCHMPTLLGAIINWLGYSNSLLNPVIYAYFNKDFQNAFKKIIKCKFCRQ
In words: Inhibition of 5HT1A receptor at 10 uM.

The target in assay [11] is D(3) dopamine receptor (Homo sapiens, UniProt P35462). In words: Inhibition of dopamine D3 receptor at 10 uM.
Sequence of D(3) dopamine receptor (P35462 whole entry): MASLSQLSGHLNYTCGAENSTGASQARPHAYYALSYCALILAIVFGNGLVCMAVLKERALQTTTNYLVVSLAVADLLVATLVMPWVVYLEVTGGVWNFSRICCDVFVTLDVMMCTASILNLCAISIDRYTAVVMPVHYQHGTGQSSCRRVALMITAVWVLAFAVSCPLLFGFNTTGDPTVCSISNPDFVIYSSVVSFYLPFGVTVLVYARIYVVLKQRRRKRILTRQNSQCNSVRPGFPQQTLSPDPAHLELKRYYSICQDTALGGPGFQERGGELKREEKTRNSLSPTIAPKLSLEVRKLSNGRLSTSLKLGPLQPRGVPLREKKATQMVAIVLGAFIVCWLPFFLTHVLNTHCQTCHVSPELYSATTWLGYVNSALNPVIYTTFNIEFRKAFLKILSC
The species named for assay [12] is Rattus norvegicus. Put plainly: Inhibition of BZP receptor in rat brain. It counts as tissue-based. Particulars: concentration not given here.
Assay [13] addresses Histamine H2 receptor (Homo sapiens, UniProt P25021). In words: Inhibition of H2 receptor at 10 uM.
For assay [14], the target named is T6, D(1B) dopamine receptor (Homo sapiens, UniProt P21918). Put plainly: Inhibition of dopamine D5 receptor.
T6 sequence (P21918 whole entry): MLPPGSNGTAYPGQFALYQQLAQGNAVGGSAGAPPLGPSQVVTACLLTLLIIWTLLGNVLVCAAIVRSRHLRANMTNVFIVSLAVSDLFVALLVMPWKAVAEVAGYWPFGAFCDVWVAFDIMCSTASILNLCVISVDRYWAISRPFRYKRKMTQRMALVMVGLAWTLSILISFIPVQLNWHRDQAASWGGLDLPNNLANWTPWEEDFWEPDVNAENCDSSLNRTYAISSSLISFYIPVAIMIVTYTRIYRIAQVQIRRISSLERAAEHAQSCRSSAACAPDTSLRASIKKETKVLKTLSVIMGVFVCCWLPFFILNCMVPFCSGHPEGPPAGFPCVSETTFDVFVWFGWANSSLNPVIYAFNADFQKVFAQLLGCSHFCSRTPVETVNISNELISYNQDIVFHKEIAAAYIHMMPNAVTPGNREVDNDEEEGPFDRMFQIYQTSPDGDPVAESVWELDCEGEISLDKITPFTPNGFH
In assay [15] the target is T4, 5-hydroxytryptamine receptor 2B. Put plainly: Inhibition of 5HT2B receptor.
Assay [16] concerns the target T3, 5-hydroxytryptamine receptor 2A. Put plainly: Inhibition of 5HT2A receptor.
The target in assay [17] is Alpha-2C adrenergic receptor (Homo sapiens, UniProt P18825). In words: Inhibition of Alpha-2C adrenergic receptor.
Sequence of Alpha-2C adrenergic receptor (P18825 whole entry): as the sequence (P18825 whole entry) above
Assay [18] has as its target Muscarinic acetylcholine receptor M5 (Homo sapiens, UniProt P08912). In words: Inhibition of muscarinic M5 receptor.
Assay [19] has as its target T7, Histamine H1 receptor (Homo sapiens, UniProt P35367). In words: Inhibition of H1 receptor.
Assay [20] deals with 5-hydroxytryptamine receptor 6 (Homo sapiens, UniProt P50406). Put plainly: Inhibition of 5HT6 receptor.
Sequence of 5-hydroxytryptamine receptor 6 (P50406 whole entry): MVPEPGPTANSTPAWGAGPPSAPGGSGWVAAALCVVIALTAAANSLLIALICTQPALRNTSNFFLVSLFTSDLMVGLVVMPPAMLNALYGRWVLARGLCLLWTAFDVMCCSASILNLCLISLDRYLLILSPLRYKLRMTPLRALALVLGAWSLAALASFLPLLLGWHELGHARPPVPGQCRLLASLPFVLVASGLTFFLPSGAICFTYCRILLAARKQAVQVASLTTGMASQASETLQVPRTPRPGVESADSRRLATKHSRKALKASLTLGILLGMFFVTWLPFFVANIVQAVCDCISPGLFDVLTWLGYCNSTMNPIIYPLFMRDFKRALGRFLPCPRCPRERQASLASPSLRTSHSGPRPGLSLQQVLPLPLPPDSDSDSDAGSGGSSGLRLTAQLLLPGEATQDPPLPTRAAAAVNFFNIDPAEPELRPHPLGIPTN
Assay [21] addresses T6, D(1B) dopamine receptor. In words: Inhibition of dopamine D5 receptor at 10 uM.
Assay [22] addresses Muscarinic acetylcholine receptor M3 (Homo sapiens, UniProt P20309). In words: Inhibition of muscarinic M3 receptor.
Assay [23] concerns the target Alpha-2A adrenergic receptor (Homo sapiens, UniProt P08913). Put plainly: Inhibition of alpha2A adrenergic receptor.
Assay [24] deals with Muscarinic acetylcholine receptor M4 (Homo sapiens, UniProt P08173). Put plainly: Inhibition of muscarinic M4 receptor.
For assay [25], the target named is Muscarinic acetylcholine receptor M2 (Homo sapiens, UniProt P08172). In words: Inhibition of muscarinic M2 receptor.
In assay [26] the target is T7, Histamine H1 receptor. In words: Inhibition of H1 receptor at 10 uM.

Molecules are shown by their SMILES.

T7 sequence (P35367 whole entry): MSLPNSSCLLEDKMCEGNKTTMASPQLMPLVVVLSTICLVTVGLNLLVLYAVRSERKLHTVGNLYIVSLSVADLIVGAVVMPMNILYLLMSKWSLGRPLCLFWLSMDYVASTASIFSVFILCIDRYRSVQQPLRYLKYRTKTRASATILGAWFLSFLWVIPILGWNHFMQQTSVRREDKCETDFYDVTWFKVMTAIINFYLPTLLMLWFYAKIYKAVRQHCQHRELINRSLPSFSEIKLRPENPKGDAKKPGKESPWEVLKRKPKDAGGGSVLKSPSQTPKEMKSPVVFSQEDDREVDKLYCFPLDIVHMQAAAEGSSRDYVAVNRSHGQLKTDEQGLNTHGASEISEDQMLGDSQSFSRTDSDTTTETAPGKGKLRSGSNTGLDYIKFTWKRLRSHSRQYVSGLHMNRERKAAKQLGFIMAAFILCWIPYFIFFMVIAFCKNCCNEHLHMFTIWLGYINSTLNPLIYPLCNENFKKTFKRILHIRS
Sequence of Alpha-2B adrenergic receptor (Homo sapiens) (P18089 whole entry): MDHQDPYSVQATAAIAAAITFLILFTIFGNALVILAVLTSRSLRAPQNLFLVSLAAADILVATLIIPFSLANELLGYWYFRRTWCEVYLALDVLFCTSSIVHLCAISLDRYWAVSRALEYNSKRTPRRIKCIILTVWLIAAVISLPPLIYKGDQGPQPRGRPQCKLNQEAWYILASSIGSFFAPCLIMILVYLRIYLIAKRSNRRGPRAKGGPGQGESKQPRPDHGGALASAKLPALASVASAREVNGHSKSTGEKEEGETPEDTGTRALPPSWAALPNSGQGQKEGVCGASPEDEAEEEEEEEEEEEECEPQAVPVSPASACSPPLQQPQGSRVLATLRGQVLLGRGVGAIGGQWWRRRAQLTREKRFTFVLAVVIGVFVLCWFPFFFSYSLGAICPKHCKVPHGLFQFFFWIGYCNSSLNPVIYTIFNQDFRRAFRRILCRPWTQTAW
Sequence of Histamine H2 receptor (P25021 whole entry): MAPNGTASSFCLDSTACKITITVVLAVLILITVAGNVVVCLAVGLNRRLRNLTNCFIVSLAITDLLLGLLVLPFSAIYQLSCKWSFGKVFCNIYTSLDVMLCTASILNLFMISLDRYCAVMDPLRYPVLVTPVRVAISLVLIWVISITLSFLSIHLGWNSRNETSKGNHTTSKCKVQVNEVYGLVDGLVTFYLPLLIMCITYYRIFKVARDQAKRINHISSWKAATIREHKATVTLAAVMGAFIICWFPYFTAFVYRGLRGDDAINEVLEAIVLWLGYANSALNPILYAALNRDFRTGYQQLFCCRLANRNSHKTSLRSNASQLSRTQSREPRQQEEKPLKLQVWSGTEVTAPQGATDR

In the case of `CN(Cc1cccc(F)c1)[C@H]1C2C3CC4C5C3CC2C5C41` (stereo not given in full), the inhibition in [1], in [2], in [3], in [4], in [6] and in assay [7] was below 50% each time. Besides, the inhibition in assay [8], in assay [9], in assay [10], in assay [11], in [12] and in assay [13] was below 50% in each case. The Ki (in general, the dissociation constant of the complex between target and ligand, obtained from inhibition or displacement) in assay [5] is 117 nM; in assay [14], above 10000 nM.

As to `CN(CCc1cccc(F)c1)[C@H]1C2C3CC4C5C3CC2C5C41` (stereo not given in full), the Ki in assay [15] was 6090 nM; in [5] it was 39 nM; in [16] it was above 10000 nM; in assay [17] it was 2070 nM. Besides, the inhibition in [1], in [2], in assay [4], in assay [7], in assay [8] and in assay [10] was below 50% in each case. Moreover, the inhibition (in general, the percentage by which the read-out fell short of the control) in assay [12] is below 50%.

Consider `Fc1cccc(CCN[C@H]2C3C4CC5C6C4CC3C6C52)c1` (stereo not given in full), for which the Ki in [18] was 1830 nM; in assay [19], 2380 nM; in [15], 6980 nM; in [20] it was above 10000 nM; in [5], 6 nM; in assay [22], 1390 nM. Also, the Ki in [23] was 7610 nM; in assay [24], 705 nM; in [25], 2290 nM; in [16] it was 6020 nM. Besides, the inhibition in [1], in assay [2], in [21], in assay [7] and in assay [10] was below 50% throughout.

For the compound `Fc1cccc(CN[C@H]2C3C4CC5C6C4CC3C6C52)c1` (stereo not given in full), the inhibition in assay [1], in assay [2], in assay [3], in assay [21], in assay [6] and in assay [26] was below 50% in each case. The inhibition in [7], in [9] and in assay [10] was below 50% throughout. In addition, the Ki in assay [5] was 19 nM.
